# From patent publication US6337417B1, “N-phenyltetrahydrophthalamic acid derivatives, methods of producing same, and herbicides containing same as effective components” (Central Glass Co., Ltd., priority 1994, dated 2002)
# Assays:
# Format in all cases: in vivo
# Set-up in all cases: key: 5: completely killed; 4: seriously injured; 3: considerably injured; 2: somewhat injured; 1: slightly injured; 0: not injured (normally grown)
# rice = experiment: Experiment 5 foliage treatment: rice; conditions: foliage spray of wettable powder suspension, evaluated 4 weeks after treatment
# Experimental: (§1) Upon seedling stage (two- or three-leaved stage) of rice, cockspur (Panicum crus-galli), garden radish, aobiyu (slender amaranth, Amaranthus viridis) and mehishiba (henry crabgrass, Digitaria cliaris) which were grown on a cultivated soil put in pots of 1/15500 ares, a selected compound obtained in a manner analogous to Example 11, in suspended wettable powder, was sprayed to each plant. After that, the pots were kept in a glass chamber to allow each plant to grow, and after the lapse of 4 weeks from the treatment with the selected compounds the herbicidal effects were evaluated. The evaluation of the herbicidal effects was similarly conducted as that of Experiment 1.
# [1] = system: cockspur (Panicum crus-galli); experiment: Experiment 5 foliage treatment: cockspur; conditions: foliage spray of wettable powder suspension, evaluated 4 weeks after treatment
# Experimental: as §1
# [2] = system: mehishiba (henry crabgrass, Digitaria cliaris); experiment: Experiment 5 foliage treatment: mehishiba; conditions: foliage spray of wettable powder suspension, evaluated 4 weeks after treatment
# Experimental: as §1
# broad-leaved weeds = experiment: Experiment 4 flooded soil treatment: broad-leaved weeds; conditions: 4 weeks after treatment
# Excerpt: (§2) Paddy soil (clay loam) was put into a pot so as to have a surface area of 1/15500 ares. Uniformly mixed seeds of several kinds of weeds, viz., nobie (barnyardgrass, Echinochloa spp.), broad-leaved weeds, hotarui (bulrush, Scirpus juncoides) and tamagayatsuri (small-flowered umbrellaplant, Cyperus difformis), were sown in the surface layer of the soil in each pot, and then paddy rice seedlings at the two- or three-leaved stage were transplanted into each pot to a depth of 2 cm, and water was fed into each pot so as to provide a 3 cm deep water layer on the soil surface. After 3 days, in other words at the initial stage of germination of nobie (barnyardgrass, Echinochloa spp.), a predetermined amount of a selected compound obtained in a manner analogous to Example 11 in the form of diluted aqueous solution was dropped into the water layer in each pot. After that, the pots were kept in a glass chamber to allow the paddy rice and the weeds to grow, and after the lapse of 4 weeks from the treatment with the selected compounds, the herbicidal effects and the degree of injury to the paddy rice were evaluated. The evaluation of the herbicidal effects was similarly conducted as to that of Experiment 1.
# [3] = system: aobiyu (slender amaranth, Amaranthus viridis); experiment: Experiment 5 foliage treatment: aobiyu; conditions: foliage spray of wettable powder suspension, evaluated 4 weeks after treatment
# Experimental: as §1
# garden radish = experiment: Experiment 5 foliage treatment: garden radish; conditions: foliage spray of wettable powder suspension, evaluated 4 weeks after treatment
# Experimental: as §1
# paddy rice = experiment: Experiment 4 flooded soil treatment: injury to paddy rice; conditions: 4 weeks after treatment
# Excerpt: as §2
# [4] = system: tamagayatsuri (small-flowered umbrellaplant, Cyperus difformis); experiment: Experiment 4 flooded soil treatment: tamagayatsuri; conditions: 4 weeks after treatment
# Excerpt: as §2
# [5] = system: nobie (barnyardgrass, Echinochloa spp.); experiment: Experiment 4 flooded soil treatment: nobie; conditions: 4 weeks after treatment
# Excerpt: as §2
# [6] = system: hotarui (bulrush, Scirpus juncoides); experiment: Experiment 4 flooded soil treatment: hotarui; conditions: 4 weeks after treatment
# Excerpt: as §2
Compound,Herbicidal Effect rice (rice; 40 g/10a),Herbicidal Effect rice (rice; 80 g/10a),Herbicidal Effect cockspur ([1]; 40 g/10a),Herbicidal Effect cockspur ([1]; 80 g/10a),Herbicidal Effect mehishiba ([2]; 40 g/10a),Herbicidal Effect mehishiba ([2]; 80 g/10a),Herbicidal Effect broad-leaved weed (broad-leaved weeds; 3.13 g/10a),Herbicidal Effect broad-leaved weed (broad-leaved weeds; 6.25 g/10a),Herbicidal Effect aobiyu ([3]; 40 g/10a),Herbicidal Effect aobiyu ([3]; 80 g/10a),Herbicidal Effect garden radish (garden radish; 40 g/10a),Herbicidal Effect garden radish (garden radish; 80 g/10a),Injury of Paddy (paddy rice; 3.13 g/10a),Injury of Paddy (paddy rice; 6.25 g/10a),Herbicidal Effect tamagayatsuri ([4]; 3.13 g/10a),Herbicidal Effect tamagayatsuri ([4]; 6.25 g/10a),Herbicidal Effect nobie ([5]; 3.13 g/10a),Herbicidal Effect nobie ([5]; 6.25 g/10a),Herbicidal Effect hotarui ([6]; 3.13 g/10a),Herbicidal Effect hotarui ([6]; 6.25 g/10a)
C#CC(C)Oc1cc(N(C(=O)C2=C(C(=O)OC3CCCC3)CCCC2)C(=O)c2cccnc2)c(F)cc1Cl (stereo not drawn) [compound 62],1,1,1,1,1,1,5,5,5,5,4.5,5,0,0.5,5,5,5,5,4,4
C#CC(C)Oc1cc(N(C(=O)C2=C(C(=O)OCCC)CCCC2)C(=O)c2cccnc2)c(F)cc1Cl (stereo not drawn) [Compound No. 58],1,1,1,1,1,3,5,5,5,5,5,5,0,0.5,5,5,5,5,4,4.5
COCCOC(=O)C1=C(C(=O)N(C(=O)c2cccnc2)c2cc(C(=O)OC)c(Cl)cc2F)CCCC1 [compound 65],1,1,1,1,1,1,5,5,5,5,5,5,0,0,4,4,5,5,4,4
COC(=O)C1=C(C(=O)N(C(=O)c2cccnc2)c2cc(OC(C)C)c(Cl)cc2F)CCCC1 [compound 56],1,1,1,1,1,1,4.5,5,5,5,5,5,0.5,0.5,5,5,5,5,5,5
C#CC(C)Oc1cc(N(C(=O)C2=C(C(=O)OCCCC)CCCC2)C(=O)c2cccnc2)c(F)cc1Cl (stereo not drawn) [compound 59],1,1,0,1,1,1,5,5,5,5,5,5,0.5,0.5,5,5,5,5,4,4
C#CCOC(=O)C1=C(C(=O)N(C(=O)c2cccnc2)c2cc(OC(C)C#C)c(Cl)cc2F)CCCC1 (stereo not drawn) [compound 61],3,4,2,2,4.5,5,5,5,5,5,5,5,0,0.5,5,5,5,5,4,4
C#CC(C)Oc1cc(N(C(=O)C2=C(C(=O)OC)CCCC2)C(=O)c2cccnc2)c(Cl)cc1Cl (stereo not drawn) [compound 70],1,1,1,1,2,2,5,5,5,5,4,5,0,0,5,5,5,5,4,4
C#CC(C)Oc1cc(N(C(=O)C2=C(C(=O)OCCOC)CCCC2)C(=O)c2cccnc2)c(Cl)cc1Cl (stereo not drawn) [compound 71],1,1,1,1,2,2,5,5,5,5,4,5,0,0,5,5,5,5,4,4
COC(=O)CSc1cc(N(C(=O)C2=C(C(=O)OC)CCCC2)C(=O)c2cccnc2)c(F)cc1Cl [compound 63],1,1,1,1,1,1,5,5,5,5,4.5,4.5,0,0,4,5,5,5,4,4
